Test results reported in patent US7989464B2, “mGluR1 antagonists as therapeutic agents” (Schering Corporation, priority 2004, dated 2011).
Like-named read-outs stand apart in the source and are kept apart here.

Target: T1, hmGluR1 receptor (Homo sapiens, UniProt Q13255)
T1 construct: expressed in transfected cells
Experiment: IC50 determination: intracellular calcium mobilization (FLIPR) upon Quisqualate stimulation in CHO cells stably expressing hmGluR1
Type: cell-based
Details: against Quisqualate 1 μM (EC80)
In short: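 CHO cells stably expressing hmGluR1 were kept overnight in DMEM high glucose with GPT and 1 mM pyruvate, then loaded 2 h with Calcium 3 dye.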

[1] = FLIPR calcium mobilization, read-out: IC50 Class
[2] = class symbols, read-out: mGIuR 1 IC50

T1 sequence (Q13255 19-1194): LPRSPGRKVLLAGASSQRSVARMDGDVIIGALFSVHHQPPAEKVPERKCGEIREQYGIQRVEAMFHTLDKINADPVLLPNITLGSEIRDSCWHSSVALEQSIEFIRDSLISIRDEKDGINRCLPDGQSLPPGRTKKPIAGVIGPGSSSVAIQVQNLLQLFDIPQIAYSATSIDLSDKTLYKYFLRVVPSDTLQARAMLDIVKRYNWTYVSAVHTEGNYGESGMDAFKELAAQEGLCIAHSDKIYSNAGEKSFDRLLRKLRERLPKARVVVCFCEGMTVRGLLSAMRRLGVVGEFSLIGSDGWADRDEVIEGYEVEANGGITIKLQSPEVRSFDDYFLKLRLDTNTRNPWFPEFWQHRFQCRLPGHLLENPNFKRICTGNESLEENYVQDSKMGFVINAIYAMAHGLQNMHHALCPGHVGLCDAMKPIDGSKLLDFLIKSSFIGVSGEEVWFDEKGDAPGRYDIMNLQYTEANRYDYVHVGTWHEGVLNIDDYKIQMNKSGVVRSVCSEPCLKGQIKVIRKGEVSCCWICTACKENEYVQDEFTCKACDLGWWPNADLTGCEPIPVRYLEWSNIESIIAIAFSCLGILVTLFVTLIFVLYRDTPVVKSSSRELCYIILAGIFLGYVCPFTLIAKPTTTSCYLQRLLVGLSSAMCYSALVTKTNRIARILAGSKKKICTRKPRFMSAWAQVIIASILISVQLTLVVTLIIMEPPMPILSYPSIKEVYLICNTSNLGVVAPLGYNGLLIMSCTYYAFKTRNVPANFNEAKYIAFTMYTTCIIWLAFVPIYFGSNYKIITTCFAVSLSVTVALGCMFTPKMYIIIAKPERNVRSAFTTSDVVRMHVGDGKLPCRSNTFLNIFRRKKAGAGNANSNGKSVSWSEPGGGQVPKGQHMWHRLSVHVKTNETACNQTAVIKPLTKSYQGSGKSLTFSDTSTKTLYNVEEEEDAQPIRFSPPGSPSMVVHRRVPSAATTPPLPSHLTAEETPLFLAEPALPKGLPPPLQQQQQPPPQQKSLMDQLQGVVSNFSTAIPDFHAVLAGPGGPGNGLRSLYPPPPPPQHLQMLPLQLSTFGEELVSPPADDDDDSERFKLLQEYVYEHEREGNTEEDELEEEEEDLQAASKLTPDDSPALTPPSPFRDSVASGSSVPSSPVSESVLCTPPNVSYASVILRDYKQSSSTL

Structure (SMILES) | IC50 [1] [nM] | IC50 [2] [nM] | other results
O=c1c2sc3nccc(NC4CC4)c3c2ncn1-c1ccc(Cl)cc1 [28HF] | < 50 |  | 
Cc1ccc(-n2cnc3c(sc4nc(N)nc(N)c43)c2=O)cc1 [71A] |  | < 50 | 
COc1ccc(-n2cnc3c(sc4ncnc(Nc5cccc(C#N)c5)c43)c2=O)cc1 [190I] | 150 to 1000 |  | 
CNc1c(C#N)cnc2sc3c(=O)n(-c4ccc(Cl)cc4)cnc3c12 [compound 189] | 50 to 150 |  | 
CCN(C)c1ncnc2sc3c(=O)n(-c4ccc5c(c4)OCC5)cnc3c12 [95K] |  | < 50 | 
CCNc1ccnc2sc3c(=O)n(-c4ccncc4)cnc3c12 [28EG] | 150 to 1000 |  | 
CNc1ccnc2sc3c(=O)n(-c4ccc(OC)cc4C)cnc3c12 [28BN] | < 50 |  | 
CCNc1ccnc2sc3c(=O)n(-c4cccc(F)c4)cnc3c12 [28CQ] | < 50 |  | 
CN(C)c1ccnc2sc3c(=O)n(N(c4ccccc4)c4ccccc4)cnc3c12 [60J] |  | > 1000 | 
CCNc1ncnc2sc3c(=O)n(-c4ccc(C)cc4)cnc3c12 [95P] |  | < 50 | 
O=c1c2sc3ncnc(Nc4ccccc4)c3c2ncn1-c1ccc2c(c1)OCO2 [95GG] | > 1000 |  | 
CN(C)c1ccnc2sc3c(=O)n(-c4ccc(C5CC5)c(F)c4)cnc3c12 [137G] | < 50 |  | 
COc1ccc(-n2cnc3c(sc4ncnc(Nc5nccs5)c43)c2=O)cc1 [190D] | 150 to 1000 |  | 
C#CCNc1nc(C)nc2sc3c(=O)n(-c4ccc(OC)cc4)cnc3c12 [95FM] | 50 to 150 |  | 
O=c1c2sc3nccc(OCCO)c3c2ncn1-c1ccc(Cl)cc1 [66H] | > 1000 |  | 
Cc1cc(N(C)C)c2c(n1)sc1c(=O)n(-c3ccc4ncsc4c3)cnc12 [7CO] |  | 50 to 150 | 
CNc1ccnc2sc3c(=O)n(-c4ccc5c(c4)OCCO5)cnc3c12 [28BZ] | < 50 |  | 
CCNc1ccnc2sc3c(=O)n(-c4ccc(OC)cc4)cnc3c12 [131A] |  | < 50 | 
CCNc1ccnc2sc3c(=O)n(-c4ccc(OC)cc4F)cnc3c12 [28BJ] | 50 to 150 |  | 
CCN(C)c1ncnc2sc3c(=O)n(-c4ccc(OC(F)(F)F)cc4)cnc3c12 [95R] |  | < 50 | 
O=c1c2sc3ncnc(Nc4ccccc4)c3c2ncn1-c1ccc2ncsc2c1 [95GD] | > 1000 |  | 
CN(C)c1cccc2sc3c(=O)n(-c4ccc(Cl)c(Cl)c4)cnc3c12 [103J] | > 1000 |  | 

Structure (SMILES) | IC50 [1] [nM] | IC50 [2] [nM] | other results
COc1ccc(-n2cnc3c(sc4ncnc(Nc5ccccn5)c43)c2=O)cc1 [190K] | 150 to 1000 |  | 
COc1ccccc1CCn1cnc2c(sc3nccc(N(C)C)c32)c1=O [28EM] | > 1000 |  | 
CN(C)c1ccnc2sc3c(=O)n(CC4CCCCC4)cnc3c12 [15C] |  | < 50 | 
O=c1c2sc3ncnc(Nc4ccccc4)c3c2ncn1-c1ccccc1 [95GC] | > 1000 |  | 
CN(C)c1cccc2sc3c(=O)n(-c4cccc(Cl)c4Cl)cnc3c12 [103I] | > 1000 |  | 
CCN(C)c1ccnc2sc3c(=O)n(-c4ccc(OC)cc4)cnc3c12 [7CE] |  | < 50 | 
CN(C)c1ccnc2sc3c(=O)n(-c4cccc(C5CC5)c4)cnc3c12 [137B] |  | < 50 | 
Cc1ccc(-n2cnc3c(sc4nccc(NCc5cccs5)c43)c2=O)cc1 [28EQ] | 150 to 1000 |  | 
O=c1c2sc3nccc(NCCO)c3c2ncn1-c1ccc(Cl)cc1 [28GB] | < 50 |  | 
Cc1ccc(-n2cnc3c4c(N(C)C)ccnc4n(C)c3c2=O)cc1 [134A] |  | 150 to 1000 | 
C=CCNc1ncnc2sc3c(=O)n(-c4ccc(Br)cc4)cnc3c12 [95BO] | < 50 |  | IC50 (FLIPR calcium mobilization, read-out: mGluR1 IC50): 1.54 nM
CC#CCOc1ccnc2sc3c(=O)n(-c4ccc(C)cc4)cnc3c12 [66B] |  | > 1000 | 
COc1ccc(-n2cnc3c(sc4nc(C)cc(C)c43)c2=O)cc1 [P-15] |  | 150 to 1000 | 
CN(C)c1ccnc2sc3c(=O)n(N4CCCC4)cnc3c12 [60I] |  | 50 to 150 | 
Cc1ccc(-n2c(C)nc3c(sc4nccc(NCCO)c43)c2=O)cc1 [113N] |  | 50 to 150 | 
CCCNc1ccnc2sc3c(=O)n(-c4ccc(C)cc4)cnc3c12 [28AS] |  | < 50 | 
Cc1cc(N(C)C)c2c(n1)sc1c(=O)n(-c3ccc4c(c3)CCO4)cnc12 [7CN] |  | 50 to 150 | 
C=CCNc1ccnc2sc3c(=O)n(-c4ccc(OC)c(F)c4)cnc3c12 [28DT] | < 50 |  | 
COc1ccc(-n2cnc3c(sc4ncc(Br)c(N(C)C)c43)c2=O)cc1 [compound 151] |  | < 50 | 
COc1cc(-n2cnc3c(sc4nccc(N(C)C)c43)c2=O)ccc1Br [7DT] |  | 150 to 1000 | 
Nc1ccnc2sc3c(=O)n(C4CCCCC4)cnc3c12 [72A] |  | < 50 | 
CN(C)c1c([N+](=O)[O-])cnc2sc3c(=O)n(C4CCCCC4)cnc3c12 [compound 51] |  | < 50 | 

Structure (SMILES) | IC50 [1] [nM] | IC50 [2] [nM] | other results
COCCCNc1ccnc2sc3c(=O)n(-c4ccc(O)cc4)cnc3c12 [28HW] | < 50 |  | 
COc1ccc(-n2cnc3c(sc4nccc(Br)c43)c2=O)cc1 [compound 150] |  | 150 to 1000 | 
CN(C)c1ccnc2sc3c(=O)n(N4CCCCCC4)cnc3c12 [60D] |  | < 50 | 
CCNc1nncc2sc3c(=O)n(-c4ccc(C)cc4)cnc3c12 [167I] | 150 to 1000 |  | 
CCn1cnc2c(sc3ncnc(Nc4ccc(OC)cc4)c32)c1=O [95GM] | > 1000 |  | 
CN1CCN(c2ccnc3sc4c(=O)n(C5CCCCC5)cnc4c23)CC1 [61A] |  | > 1000 | 
O=c1c2sc3nccc(NCCCO)c3c2ncn1-c1ccc2c(c1)OCCO2 [28CI] | < 50 |  | 
CNc1c(Cl)cnc2sc3c(=O)n(-c4ccc(OC)cc4)cnc3c12 [compound 198] | < 50 |  | 
O=c1c2sc3nccc(Nc4ccccc4)c3c2ncn1-c1ccc(Cl)cc1 [190C] | 150 to 1000 |  | 
CN(C)c1ccnc2sc3c(=O)n(-c4ccc5[nH]ccc5c4)cnc3c12 [7AM] |  | < 50 | 
CN(C)c1ccnc2sc3c(=O)n(NC(=O)C4CC4)c(C4CC4)nc3c12 [65C] |  | > 1000 | 
COc1ccnc2sc3c(=O)n(-c4ccc(F)cc4)cnc3c12 [compound 180] | 150 to 1000 |  | 
Cc1ccc(-n2cnc3c(sc4nc(-c5cccs5)cc(C(F)(F)F)c43)c2=O)cc1 [P-13] |  | 150 to 1000 | 
C=C(C)CNc1ccnc2sc3c(=O)n(-c4ccc(C)cc4)cnc3c12 [28EW] | < 50 |  | 
COc1ccc(-n2cnc3c(sc4ncc(Cl)c(N(C)C)c43)c2=O)cc1 [compound 197] | < 50 |  | 
COc1ccc(-n2cnc3c(sc4ncnc(NCc5ccco5)c43)c2=O)cc1 [95GQ] | 150 to 1000 |  | 
C=C(Cl)CNc1ccnc2sc3c(=O)n(-c4ccc(C)cc4)cnc3c12 [28EY] | < 50 |  | 
CN(C)c1ccc(F)c2sc3c(=O)n(C4CCCCC4)cnc3c12 [compound 104] |  | > 1000 | 
CCc1ccc(-n2cnc3c(sc4nccc(N(C)C)c43)c2=O)cc1 [7BJ] |  | < 50 | 
COc1ccc(-n2cnc3c(sc4cccc(N(C)C)c43)c2=O)cc1 [103E] |  | 50 to 150 | 
Cc1ccc(-n2cnc3c(sc4ncnc(Nc5ccccc5)c43)c2=O)cc1 [95FW] | > 1000 |  | 
CN(C)c1ccnc2sc3c(=O)n(-c4ccc5[nH]c(C(F)(F)F)nc5c4)cnc3c12 [7BD] |  | > 1000 | 

Structure (SMILES) | IC50 [1] [nM] | IC50 [2] [nM] | other results
CN(C)c1ccc(C#N)c2sc3c(=O)n(C4CCCCC4)cnc3c12 [compound 105] |  | > 1000 | 
C#CCNc1ncnc2sc3c(=O)n(-c4ccc(Br)cc4)cnc3c12 [95EQ] | < 50 |  | 
COc1ccc(-n2cnc3c(sc4ncc(Br)c(N(C)C)c43)c2=O)cc1Br [compound 149] |  | > 1000 | 
COC[C@H](C)Nc1ccnc2sc3c(=O)n(-c4ccc(Br)cc4)cnc3c12 [28GZ] | > 1000 |  | 
O=c1c2sc3nccc(NCCCO)c3c2ncn1-c1ccc2occc2c1 [28BF] | < 50 |  | 
O=C(Nc1ccnc2sc3c(=O)n(C4CCCCC4)cnc3c12)c1ccco1 [73E] |  | > 1000 | 
CCN(C)c1ccnc2sc3c(=O)n(-c4ccc5occc5c4)cnc3c12 [28BU] | < 50 |  | 
C=C(C)CNc1ncnc2sc3c(=O)n(-c4ccc(C)cc4)cnc3c12 [95EY] | < 50 |  | 
CN(C)c1ccnc2sc3c(=O)n(-c4ccc(Cl)cc4)cnc3c12 [P-2] |  | < 50 | 
CCc1ccc(-n2cnc3c(sc4nccc(NC5CC5)c43)c2=O)cc1 [28BT] | 50 to 150 |  | 
Cc1ccc(-n2cnc3c(sc4nccc(OCCO)c43)c2=O)cc1 [66E] |  | > 1000 | 
O=c1c2sc3nccc(Oc4ccccc4)c3c2ncn1-c1ccc(Cl)cc1 [compound 176] | > 1000 |  | 
Cc1ccc(-n2cnc3c(sc4nc(C(F)(F)F)nc(N)c43)c2=O)cc1 [71E] | > 1000 |  | 
O=c1c2sc3ncccc3c2ncn1-c1ccccc1 [compound 11] |  | > 1000 | 
COc1cc(Cl)nc2sc3c(=O)n(C4CCCCC4)cnc3c12 [compound 78] |  | > 1000 | 
CCNc1ncnc2sc3c(=O)n(-c4ccc(OC(F)(F)F)cc4)cnc3c12 [95V] |  | 150 to 1000 | 
CCN(CC)c1ccnc2sc3c(=O)n(-c4ccc(OC)cc4)cnc3c12 [28AQ] |  | 50 to 150 | 
CN(C)c1c[n+]([O-])cc2sc3c(=O)n(-c4ccc(Cl)cc4)cnc3c12 [compound 53] |  | > 1000 | 
Cc1ccc(-n2cnc3c(sc4nccc(N5CCOCC5)c43)c2=O)cc1 [28CW] | > 1000 |  | 
